According to patent US20250241898A1, “Topical Benzimidazole Formulations and Methods for Use in Treating Inflammatory Dermatoses” (JJR&D, LLC, priority 2022, published 2025):

Tested on: CTLL-2 (ATCC TIB-214) cytotoxic T lymphocytes
Assay: In vitro screening platform for immunomodulation, CTLL-2 T-lymphocyte density
Assay type: cell-based
Description: An in vitro screening platform for immunomodulation was used to evaluate mebenzadole for efficacy. CTLL-2 (ATCC® TIB-214™) are cytotoxic T lymphocytes that were purchased and cultured according to ATCC protocol. […] The maximum volume added to the 1 mL of each of the 12 wells was 10 μL for the highest test concentration of mebenzadole and the control.

## COC(=O)Nc1nc2ccc(C(=O)c3ccccc3)cc2[nH]1 [mebendazole, methyl 5-benzoylbenzimidazole-2-carbamate]
CTLL-2 cell culture, 1 nM to 1 μM
  effect on T-lymphocytes (FIG. 1): dose dependently kill T-lymphocytes
CTLL-2 cell culture, mebendazole in DMSO, 1 nM, 5 nM, 500 nM and 1 μM tested vs DMSO control
  test concentration at which significant reduction of T-lymphocytes starts: 1 nM
In DMSO, equivalent given for 1 nM
  concentration at which significant reduction of CD+8 T cells starts, as mass concentration: 0.295 μg per mL
